The subject of test [1] is Plasmodium vinckei. In words: Antimalarial activity against Plasmodium vinckei infected in perorally dosed mice (Mus musculus). The test is classed as functional. The note with it: po.
The subject of test [2] is Plasmodium falciparum. The experiment in a line: Antiplasmodial activity against Plasmodium falciparum. The test is classed as functional, organism-based.
Test [3] deals with Plasmodium vinckei. The experiment in a line: Antimalarial activity against Plasmodium vinckei infected in intraperitoneally dosed mice (Mus musculus). The format is functional. The note with it: ip.

We go through 39 molecules from ChEMBL document CHEMBL1177764, “Exploration of potential prodrug approach of the bis-thiazolium salts T3 and T4 for orally delivered antimalarials” (Bioorg Med Chem Lett, 2010).

The term ED50 denotes the dose that gives a 50% effect, or the effect in half of the subjects. Lower therefore signals an effect at a small dose. One may read the IC50 as the midpoint of a concentration-inhibition curve. A low value points to greater potency in that assay.

In turn, `C/C(=C1\CCOC(=S)S1)N(C=O)CCCCCCCCCCCCN(C=O)/C(C)=C1/CCOC(=S)S1` showed an ED50 in test [1] greater than 30 mg/kg. For the same molecule, inhibition in test [2] was half-maximal at 4400 nM (IC50).
In the case of `COCC/C(SC(C)=O)=C(\C)N(C=O)CCCCCCCCCCCCN(C=O)/C(C)=C(/CCOC)SC(C)=O`, 1.1 nM corresponded to half-maximal inhibition in test [2] (IC50).
On to `CCC(=O)S/C(CCOC)=C(/C)N(C=O)CCCCCCCCCCCCN(C=O)/C(C)=C(/CCOC)SC(=O)CC`, for which the ED50 in test [3] is less than 0.1 mg/kg; in test [1] it was 12 mg/kg. Also, 4.3 nM corresponded to half-maximal inhibition in test [2] (IC50).
Turning to `COCC/C(SC(=O)C(C)C)=C(\C)N(C=O)CCCCCCCCCCCCN(C=O)/C(C)=C(/CCOC)SC(=O)C(C)C`, the ED50 was 0.12 mg/kg in test [3] and 11 mg/kg in test [1]. Also, in test [2], the IC50 stood at 1.1 nM.
Molecule `COCC/C(SC(=O)C1CC1)=C(\C)N(C=O)CCCCCCCCCCCCN(C=O)/C(C)=C(/CCOC)SC(=O)C1CC1` came in with an ED50 in test [1] of 16 mg/kg. In test [2], this molecule returned a half-inhibitory concentration (IC50) of 2 nM.
The matching figures for `COCC/C(SC(=O)CC(C)C)=C(\C)N(C=O)CCCCCCCCCCCCN(C=O)/C(C)=C(/CCOC)SC(=O)CC(C)C`: 16 mg/kg and 2.4 nM.
Regarding `COCC/C(SC(=O)C(C)(C)C)=C(\C)N(C=O)CCCCCCCCCCCCN(C=O)/C(C)=C(/CCOC)SC(=O)C(C)(C)C`, in test [2], the IC50 came to 6.7 nM.
`COCC/C(SC(=O)C1CCC1)=C(\C)N(C=O)CCCCCCCCCCCCN(C=O)/C(C)=C(/CCOC)SC(=O)C1CCC1` registered an IC50 in test [2] of 3.6 nM.
As to `COCC/C(SC(=O)C1CCCC1)=C(\C)N(C=O)CCCCCCCCCCCCN(C=O)/C(C)=C(/CCOC)SC(=O)C1CCCC1`, the results for the 50% effective dose (ED50) in test [3] and in test [1] were 0.65 mg/kg and 17 mg/kg, respectively. Further, the IC50 in test [2] amounted to 8.2 nM.
For `C/C=C/CC(=O)S/C(CCOC)=C(/C)N(C=O)CCCCCCCCCCCCN(C=O)/C(C)=C(/CCOC)SC(=O)C/C=C/C`, the ED50 in test [1] was found to be 16 mg/kg. In test [2], this molecule yielded an IC50 of 3.3 nM.
`COCC/C(SC(=O)c1ccccc1)=C(\C)N(C=O)CCCCCCCCCCCCN(C=O)/C(C)=C(/CCOC)SC(=O)c1ccccc1`: the ED50 in test [3] is less than 0.5 mg/kg; in test [1], 15 mg/kg. Half-maximal inhibition in test [2] (IC50) was put at 1.7 nM.
The matching figures for `COCC/C(SC(=O)c1ccccc1C)=C(\C)N(C=O)CCCCCCCCCCCCN(C=O)/C(C)=C(/CCOC)SC(=O)c1ccccc1C`: 0.25 mg/kg, 24 mg/kg and 110 nM.
Consider `COCC/C(SC(=O)c1ccccc1C(F)(F)F)=C(\C)N(C=O)CCCCCCCCCCCCN(C=O)/C(C)=C(/CCOC)SC(=O)c1ccccc1C(F)(F)F`, for which the ED50 is greater than 2.5 mg/kg in test [3] and greater than 90 mg/kg in test [1]. Moreover, in test [2], half-maximal inhibition (IC50) was put at 2200 nM.
Consider `COCC/C(SC(=O)COC)=C(\C)N(C=O)CCCCCCCCCCCCN(C=O)/C(C)=C(/CCOC)SC(=O)COC`, for which the results for the ED50 in test [3] and in test [1] were 1.9 mg/kg and 80 mg/kg, respectively. Besides, 2.3 nM corresponded to half-maximal inhibition in test [2] (IC50).
As for `COCC/C(SC(=O)Cc1ccco1)=C(\C)N(C=O)CCCCCCCCCCCCN(C=O)/C(C)=C(/CCOC)SC(=O)Cc1ccco1`, the 50% effect level in test [1] (ED50) was put at a dose of 14 mg/kg. Moreover, the IC50 in test [2] was determined as 1.6 nM.
As to `COCC/C(SC(=O)CCC(=O)OC)=C(\C)N(C=O)CCCCCCCCCCCCN(C=O)/C(C)=C(/CCOC)SC(=O)CCC(=O)OC`, the ED50 came to 0.4 mg/kg in test [3] and 10 mg/kg in test [1]. In test [2], this molecule came in with a 50% inhibitory concentration (IC50) of 5.9 nM.
The matching figures for `COCC/C(SC(=O)CCC(C)=O)=C(\C)N(C=O)CCCCCCCCCCCCN(C=O)/C(C)=C(/CCOC)SC(=O)CCC(C)=O`: 0.15 mg/kg, 3 mg/kg and 1.6 nM.
For the molecule `COCC/C(SC(=O)C(C)(C)OC(C)=O)=C(\C)N(C=O)CCCCCCCCCCCCN(C=O)/C(C)=C(/CCOC)SC(=O)C(C)(C)OC(C)=O`, the ED50 in test [3] was 60.3 mg/kg; in test [1], 57 mg/kg. The IC50 in test [2] turned out to be 15.6 nM.
`COCC/C(SC(=O)c1ccc(CN2CCOCC2)cc1)=C(\C)N(C=O)CCCCCCCCCCCCN(C=O)/C(C)=C(/CCOC)SC(=O)c1ccc(CN2CCOCC2)cc1`: the ED50 in test [3] came to 3.4 mg/kg; in test [1], 90 mg/kg. Moreover, inhibition in test [2] was half-maximal at 1.5 nM (IC50).
`COCC/C(SC(=O)C1CCCN1)=C(\C)N(C=O)CCCCCCCCCCCCN(C=O)/C(C)=C(/CCOC)SC(=O)C1CCCN1` (centres undefined) returned a 50% effective dose (ED50) in test [1] of 17 mg/kg. The molecule also yielded an IC50 in test [2] of 2.8 nM.
`COCC/C(SC(=O)c1cccnc1)=C(\C)N(C=O)CCCCCCCCCCCCN(C=O)/C(C)=C(/CCOC)SC(=O)c1cccnc1` yielded an ED50 in test [1] of less than 30 mg/kg. The molecule further showed an IC50 in test [2] of 2.1 nM.
`COCCc1sc[n+](CCCCCCCCCCCC[n+]2csc(CCOC)c2C)c1C.[Br-].[Br-]`: the results for the ED50 in test [3] and in test [1] were 0.14 mg/kg and 8.1 mg/kg, respectively.
For the molecule `CCOC(=O)S/C(CCOC)=C(/C)N(C=O)CCCCCCCCCCCCN(C=O)/C(C)=C(/CCOC)SC(=O)OCC`, the ED50 in test [3] is 0.21 mg/kg; in test [1], 6.3 mg/kg. Further, in test [2], the IC50 was found to be 2.9 nM.
Turning to `COCC/C(SC(=O)OC(C)C)=C(\C)N(C=O)CCCCCCCCCCCCN(C=O)/C(C)=C(/CCOC)SC(=O)OC(C)C`, the ED50 in test [3] is less than 0.1 mg/kg; in test [1], 6.8 mg/kg. In addition, the IC50 in test [2] came to 6.2 nM.
On to `CCCCOC(=O)S/C(CCOC)=C(/C)N(C=O)CCCCCCCCCCCCN(C=O)/C(C)=C(/CCOC)SC(=O)OCCCC`, for which the 50% effect level in test [1] (ED50) was put at a dose of 16 mg/kg. In test [2], this molecule registered an IC50 of 5.6 nM.
Turning to `COCC/C(SC(=O)Oc1ccccc1)=C(\C)N(C=O)CCCCCCCCCCCCN(C=O)/C(C)=C(/CCOC)SC(=O)Oc1ccccc1`, the ED50 in test [3] worked out at 0.3 mg/kg; in test [1] it was 24 mg/kg. Half-maximal inhibition in test [2] (IC50) was put at 3.5 nM.
For the molecule `COCC/C(SC(=O)Oc1ccc([N+](=O)[O-])cc1)=C(\C)N(C=O)CCCCCCCCCCCCN(C=O)/C(C)=C(/CCOC)SC(=O)Oc1ccc([N+](=O)[O-])cc1`, the 50% effective dose (ED50) in test [1] is greater than 30 mg/kg. Further, in test [2], half-maximal inhibition (IC50) was put at 3.1 nM.
For `COCC/C(SC(=O)OC(C)Cl)=C(\C)N(C=O)CCCCCCCCCCCCN(C=O)/C(C)=C(/CCOC)SC(=O)OC(C)Cl` (centres undefined), the figures for the ED50 in test [3] and in test [1] were 0.11 mg/kg and 13 mg/kg, respectively. The molecule also displayed an IC50 in test [2] of 10.6 nM.
Take `COCC/C(SC(=O)OCCBr)=C(\C)N(C=O)CCCCCCCCCCCCN(C=O)/C(C)=C(/CCOC)SC(=O)OCCBr`: in test [1], the ED50 came to 13 mg/kg. In test [2], this molecule displayed an IC50 of 2.7 nM.
Regarding `COCC/C(SC(=O)OCCF)=C(\C)N(C=O)CCCCCCCCCCCCN(C=O)/C(C)=C(/CCOC)SC(=O)OCCF`, the ED50 amounted to 0.1 mg/kg in test [3] and 3.8 mg/kg in test [1]. The molecule further displayed an IC50 in test [2] of 2.2 nM.
In the case of `COCC/C(SC(=O)N1CCCC1)=C(\C)N(C=O)CCCCCCCCCCCCN(C=O)/C(C)=C(/CCOC)SC(=O)N1CCCC1`, the ED50 in test [3] is greater than 5 mg/kg; in test [1] it was greater than 90 mg/kg. This molecule showed an IC50 in test [2] of 310 nM.
Consider `COCC/C(SC(=O)N1CCCC1=O)=C(\C)N(C=O)CCCCCCCCCCCCN(C=O)/C(C)=C(/CCOC)SC(=O)N1CCCC1=O`, for which the ED50 in test [3] was 0.9 mg/kg; in test [1], 12 mg/kg. The molecule further returned an IC50 in test [2] of 29.5 nM.
As to `C/C(=C(\CCOC(=O)C(C)C)SC(=O)C(C)C)N(C=O)CCCCCCCCCCCCN(C=O)/C(C)=C(/CCOC(=O)C(C)C)SC(=O)C(C)C`, the ED50 in test [3] was 1.2 mg/kg; in test [1], 60 mg/kg. Further, the midpoint of inhibition in test [2], the IC50, lay at 7 nM.
`COC(=O)CCC(=O)OCC/C(SC(=O)CCC(=O)OC)=C(\C)N(C=O)CCCCCCCCCCCCN(C=O)/C(C)=C(/CCOC(=O)CCC(=O)OC)SC(=O)CCC(=O)OC`: the ED50 in test [3] is 0.5 mg/kg; in test [1] it was 13 mg/kg. Moreover, it took 48 nM to reach half-maximal inhibition in test [2] (IC50).
The corresponding values for `COc1ccc(C(=O)OCC/C(SC(=O)c2ccc(OC)c(OC)c2OC)=C(\C)N(C=O)CCCCCCCCCCCCN(C=O)/C(C)=C(/CCOC(=O)c2ccc(OC)c(OC)c2OC)SC(=O)c2ccc(OC)c(OC)c2OC)c(OC)c1OC` are 1.8 mg/kg, greater than 60 mg/kg and 16.5 nM.
For the molecule `C/C(=C(\CCOC(=O)c1ccccc1C)SC(=O)c1ccccc1C)N(C=O)CCCCCCCCCCCCN(C=O)/C(C)=C(/CCOC(=O)c1ccccc1C)SC(=O)c1ccccc1C`, the ED50 in test [3] was greater than 20 mg/kg; in test [1] it was greater than 180 mg/kg. Inhibition in test [2] was half-maximal at 3500 nM (IC50).
Take `C/C(=C1\CCOC(=O)S1)N(C=O)CCCCCCCCCCCCN(C=O)/C(C)=C1/CCOC(=O)S1`: the ED50 in test [3] came out at 0.25 mg/kg; in test [1] it was 5 mg/kg. This molecule also gave an IC50 in test [2] of 2.2 nM.
As to `COCC/C(SC(=O)OC)=C(\C)N(C=O)CCCCCCCCCCCCN(C=O)/C(C)=C(/CCOC)SC(=O)OC`, the figures for the 50% effective dose (ED50) in test [3] and in test [1] were 0.072 mg/kg and 1.3 mg/kg, respectively. Moreover, in test [2], the IC50 amounted to 1.85 nM.
In the case of `Cc1c(CCO)sc[n+]1CCCCCCCCCCCC[n+]1csc(CCO)c1C.[Br-].[Br-]` [ALBITIAZOLIUM BROMIDE], the ED50 in test [3] is 0.2 mg/kg; in test [1] it was 13 mg/kg.
